Laboratory results taken from US5408036A, “Isolated metallopolypeptide: compositions and synthetic methods” (The Scripps Research Institute, priority 1993, dated 1995).
Where “and” joins values, the source holds several entries; their conditions need not be identical. Identical values can stand only once. Residues, ends and D or L forms follow the SMILES beside them. No end group written: not given here. *: point of attachment. 5‑carboxyl‑2,2'‑bipyridine = O=C(c1ccc(-c2ccccn2)nc1)*

Legend:
[1] = Metal ion selectivity and relative affinities by CD analysis; format: binding; settings: for metal ion(s) that preferentially stabilize the peptide: summary of Example 3A(2), 3A(3); for metal ions bound, order of affinity: peptide SEQ ID NO:11 at pH 6.0
Text: Metal ion selectivity is an expected consequence of site specific metal-ligand interaction. The extent of helical induction, to a first approximation, depends on the affinity of metal ion toward the ligands employed, and on the compatibility of metal ion geometry and coordination sphere with the alpha-helical conformation. Thus, although numerous metal ions can induce and stabilize alpha-helix formation, the metal ion having the greatest relative affinity for the ligands employed is preferred and can readily be determined. […]
Peptides, prepared as in Example 1, and admixed with various metal salt solutions as described in Example 2B, were subjected to CD analysis to characterize metal ion selectivity with respect to the position of the metal binding site in the alpha-helical sequence.

[2] = CD titration: dependence of [θ]222 on free metal ion concentration, CdCl2; format: binding; settings: CdCl2, pH 8.0; peptide 5.9×10^-6M in 10 mM sodium borate, 0.5 mM mercaptoethanol, 21° C.
Text: (§1) FIG. 4 illustrates the dependence of mean residue molar ellipticity at 222 nm ([.THETA.]222 ×10^-3) of peptides SEQ ID NO's:2 AND 3 on the concentration of free metal ions when measured as described in Example 3A(2).
(§2) The peptide metal salt solution admixtures prepared as in Example 2A were subjected to CD analyses according to published procedures to measure the degree of stability induced by metal ion complexation with peptides. Greenfield et al., Biochem, 8:4108 (1969) and Johnson, Ann. Rev. Biophvs. Chem., 17:145 (1988). All CD data reported herein have an uncertainty of ±2 to 5% for a 100% helix, [θ]222 =-35,000, and are based on several CD measurements of both peptides SEQ ID NO's:2 and 3 in the presence and absence of metal ions in various TFE/H20 mixtures at -10° to 20° C.
(§3) Both Cu(II) and Zn(II) bound peptide SEQ ID NO:3 with similar affinities and increased the helical content to the same extent.

[3] = CD titration: dependence of [θ]222 on free metal ion concentration, ZnCl2; format: binding; settings: CD analysis, ZnCl2
Text: as §1, §2, §3

[4] = Circular dichroism (CD) to measure degree of secondary structure (alpha-helicity); format: physicochemical; settings: for helicity / θ: using Cu(II)
Protocol: ID No's. 3 and 4. The analysis was performed as described above.
Proton nuclear magnetic resonance spectra were recorded at 300MHz on Bruker AM300 spectrometer and are reported in parts per million (ppm) downfield from Me4 Si. Ultraviolet-visible spectra were recorded on Aviv Associates 14DS and Milton Roy Spectronic 3000 Array spectrometers. Circular dichroism measurements were made on Aviv Associates 62DS spectrometer equipped with a thermostable cell holder using 10, 1, and 0.1 mm Hellma quartz cells. All reported CD data have an uncertainty of ±2-5%. All ellipticity measurements are expressed as mean residue ellipticity, [θ], having the units deg·cm^2 ·dmol-^1.

[5] = Heat denaturation assay to measure melting temperatures; format: physicochemical
Protocol: In order to assess differences in helix stability between the metal ion complexed and uncomplexed forms of peptides Seq. ID No's. 3 and 4, the conformational stability of each peptide in the presence and absence of transition metal ions was determined from heat denaturation studies according to published procedures. Pace et al., In Protein structure, p. 311., IRL Press, (1989). The analysis of the thermal denaturation curves afforded linear ΔG vs. T and van't Hoff plots. […] Complexed peptides Seq. ID No's.
Because tris-bipyridyl-metal ion coordination complexes are chiral and can form either a left-handed or a right-handed helix, two diastereomeric tri-helical structures can possibly be formed. The stereogenic environment of the ensuing parallel tri-helical topology as well as the geometrical constraints imposed by the overall C3 symmetry of the coordination complex was expected, however, to enforce a high degree of diastereoselectivity in the assembly process. The CD spectrum (in the region of 280 and 330 nm) of the peptide in the presence of Ni(II) indicated the formation of one diastereomer having a left-handed helical configuration. Such a behavior is also consistent with the expected left handed supercoil of the tri-helical metallopolypeptide. The analysis of the thermal denaturation curves for the metallopolypeptide in the presence of Ni(II) yielded linear ΔG vs T and van't Hoff plots.

[6] = Aqueous solubility of the peptide; format: physicochemical
Protocol: The peptide, in the absence of a metal ion, was readily soluble (up to about 2 mg/ml, 1.3 mM) in aqueous media at a pH value of from about 4 to about 9.

[7] = Concentration dependence of ellipticity at 222 nm, monomer-nmer equilibria; format: physicochemical; settings: absence of added metal ions; nonlinear regression MINSQ
Protocol: Data (Δ) were analyzed according to monomer-.eta.mer equilibria using the equation below, where Pn, Pmon, and PT are the self-associated, monomeric, and total concentrations of the peptides, respectively, n is the degree of association, θmon is the ellipticity of the monomer, and θn is the ellipticity of the self-associated form of the peptide. The values of n=1.95, θmon =-10,100, θn =-27,900, and Kdiss =6.4×10^-4 were determined by the nonlinear regression program MINSQ. [formula]

[8] = with CdCl2 (solution 8, 7.3×10^-4 M), water, 4° C.
[9] = Ni(II) or Co(II) ions plus 150 mM NaCl
[10] = absence of any polyvalent metal ion, 7.4 μM in 5 mM sodium borate, pH 6.4, 21° C.
[11] = presence of Ni(II) or Co(II) ions, similar conditions (5 mM sodium borate, pH 6.4, 21° C.)

Q: What does the source list for `CC(=O)N[C@@H](C)C(=O)N[C@@H](CCC(=O)O)C(=O)N[C@@H](C)C(=O)N[C@@H](C)C(=O)N[C@@H](C)C(=O)N[C@@H](CCCCN)C(=O)N[C@@H](CCC(=O)O)C(=O)N[C@@H](C)C(=O)N[C@@H](C)C(=O)N[C@@H](C)C(=O)N[C@@H](CCCCN)C(=O)N[C@@H](CS)C(=O)N[C@@H](C)C(=O)N[C@@H](C)C(=O)N[C@@H](C)C(=O)N[C@@H](Cc1c[nH]cn1)C(=O)N[C@@H](C)C(N)=O` [peptide SEQ ID NO:2, Ac--Ala--Glu--Ala--Ala--Ala--Lys--Glu--Ala--Ala--Ala--Lys--Cys--Ala--Ala--Ala--His--Ala--CONH2] (Ac-AEAAAKEAAAKCAAAHA-NH2)?
A: metal ion selectivity ([1]; CD analysis, CdCl2 vs ZnCl2): Cd(II) selective; metal ion(s) that preferentially stabilize the peptide [1]: Cu(II) and Zu(II); Kd [2]: 56 µM; effect of Zn(II) on helical content [3]: no effect; dependence of helicity on added NaF ([4]; NaF up to 250 mM, 5 mM sodium borate): independent of concentration of added NaF up to 250 mM; alpha-helicity ([4]; absence of metal ion (solution 7), water pH 6.65, 4° C.): 54%; dependence of CD spectra on peptide concentration ([4]; presence and absence of metal ions, 0.5-70 μM): independent of the peptide concentration; alpha-helicity [4, 8]: up to 90%; θ222 [4, 8]: -31,500

Q: With `CC(=O)N[C@@H](C)C(=O)N[C@@H](CCC(=O)O)C(=O)N[C@@H](C)C(=O)N[C@@H](C)C(=O)N[C@@H](C)C(=O)N[C@@H](CCCCN)C(=O)N[C@@H](Cc1c[nH]cn1)C(=O)N[C@@H](C)C(=O)N[C@@H](C)C(=O)N[C@@H](C)C(=O)N[C@@H](Cc1c[nH]cn1)C(=O)N[C@@H](CCC(=O)O)C(=O)N[C@@H](C)C(=O)N[C@@H](C)C(=O)N[C@@H](C)C(=O)N[C@@H](CCCCN)C(=O)N[C@@H](C)C(N)=O` [peptide SEQ ID NO:4, Ac--Ala--Glu--Ala--Ala--Ala--Lys--His--Ala--Ala--Ala--His--Glu--Ala--Ala--Ala--Lys--Ala--CONH2] (Ac-AEAAAKHAAAHEAAAKA-NH2) as the compound, how does the “melting temperature (Tm)” value [5] read?
A: -15.5 °C

Q: And the “metal ions bound, order of affinity” value ([1]; CD analysis)?
A: Ni(II) and Cu(II) predominantly followed by Cd(II) then Zn(II)

Q: What about the “metal ion(s) that preferentially stabilize the peptide” value [1] of the same compound?
A: Ni(II)

Q: What about the “CD spectrum, structure indicated” value ([4]; room temperature in water) of the same compound?
A: random coil structure

Q: Which results are given for `CC(=O)N[C@@H](C)C(=O)N[C@@H](Cc1c[nH]cn1)C(=O)N[C@@H](C)C(=O)N[C@@H](C)C(=O)N[C@@H](C)C(=O)N[C@@H](Cc1c[nH]cn1)C(=O)N[C@@H](CCC(=O)O)C(=O)N[C@@H](C)C(=O)N[C@@H](C)C(=O)N[C@@H](C)C(=O)N[C@@H](CCCCN)C(=O)N[C@@H](CCC(=O)O)C(=O)N[C@@H](C)C(=O)N[C@@H](C)C(=O)N[C@@H](C)C(=O)N[C@@H](CCCCN)C(=O)N[C@@H](C)C(N)=O` [peptide SEQ ID NO:5, Ac--Ala--His--Ala--Ala--Ala--His--Glu--Ala--Ala--Ala--Lys--Glu--Ala--Ala--Ala--Lys--Ala--CONH2] (Ac-AHAAAHEAAAKEAAAKA-NH2)?
A: binding of Cd(II) or Zn(II) ([1]; CD analysis): no significant binding; metal ions bound, order of affinity ([1]; CD analysis): Ni(II) and Cu(II) in descending order of affinity; metal ion(s) that preferentially stabilize the peptide [1]: Ni(II)

Q: For `CC[C@H](C)[C@H](NC(=O)[C@H](Cc1ccc(O)cc1)NC(=O)[C@@H](NC(=O)[C@H](Cc1c[nH]cn1)NC(=O)CNC(=O)[C@@H]1CCCN1C(=O)[C@H](Cc1c[nH]cn1)NC(=O)[C@@H](NC(=O)[C@H](CO)NC(=O)[C@H](CC(C)C)NC(=O)[C@H](CS)NC(C)=O)C(C)C)[C@@H](C)O)C(=O)N[C@@H](CCC(N)=O)C(=O)N[C@@H](CS)C(N)=O` [peptide SEQ ID NO:19] (Ac-CLSVHPGHTYIQC-NH2), which “CD spectrum, structure indicated” value ([4]; absence of added Zn, about 6.0×10^-6 M in Na borate, pH 7.5) is on record?
A: random-coiled structure

Q: What about the “CD spectrum, structure indicated” value ([4]; one equivalent of Zn added) of the same compound?
A: beta-turn structure

Q: What about the solubility ([6]; aqueous media, water, absence of a metal ion, pH about 4 to about 9) of the same compound?
A: ≥ 2000 µg/mL and ≥ 1300 µM

Q: What about the “decrease of aqueous solubility in the presence of Zn” value ([6]; pH values greater than about 5.0) of the same compound?
A: about 100 fold

Q: Which results are given for “-Gly-Glu-Leu-Ala-Glu-Gln-Lys-Leu-Glu-Gln-Ala-Leu-Gln-Lys-Leu-Ala ({5‑carboxyl‑2,2'‑bipyridine}-GELAEQKLEQALQKLA) [peptide of Example 4]”?
A: θmon, ellipticity of the monomer [7]: -10,100; θn, ellipticity of the self-associated form [7]: -27,900; alpha-helicity [4, 9]: 80%; θ222 [4, 9]: -25,800 deg·cm2·dmol^-1; alpha-helicity [4, 10]: 30%; θ222 [4, 10]: -10,000 deg·cm^2·dmol^-1; alpha-helicity [4, 11]: greater than 70%; θ222 [4, 11]: -23,400 degcm^2 dmol^-1

Q: What does the source list for “Ac--Ala--Ala--Xaa2 --Ala--Leu--Glu--Xaa2 --Gln--Ala--Lys--Ala--Leu--Lys--Glu--Ala--Ala--Gln--Lys--Ala--CONH2 [peptide SEQ ID NO:11, Xaa2 = (NH2)(CO2 H)CH(CH2)3 N(CH2 CO2 H)2]”?
A: metal ions bound, order of affinity ([1]; CD analysis): Cu(II), Hg(II), Cd(II), Fe(II), Zn(II) and Pb(II) in descending order of affinity; metal ion(s) that preferentially stabilize the peptide [1]: Cu(II); helicity ([4]; 0° C.): about 100%; θ ([4]; 0° C.): 35,600; helicity ([4]; 20° C.): about 80%; θ ([4]; 20° C.): 29,300

Q: With “Ru(III)-peptide SEQ ID NO:3 complex: exchange-inert macrocyclic cis-[Ru(NH3)4 (L)2 ]^3+ complex of peptide SEQ ID NO:3 through two His residues at i and i+4 (AEAAAKEAAAKHAAAHA; Ru(III) tetraammine macrocyclic complex via two His)” as the compound, how does the “melting temperature (Tm)” value [5] read?
A: 35 °C

Q: What about the alpha-helicity ([4]; room temperature in water) of the same compound?
A: > 80%

Q: What about the θ222 ([4]; room temperature in water) of the same compound?
A: -28,000
